# Results published in US12433877B2, “Sustained release drug delivery systems and related methods” (Durect Corporation, priority 2021, dated 2025).
# Structures can show the parent of a compound that is named as a salt.
# Columns and labels:
# [1] = tested on: patients undergoing elective arthroscopic shoulder surgery; assay: Example 1 / Study 1: adverse events and 6-month follow-up safety; format: in vivo, human
# Text: The incidence of adverse events (AEs); the incidence of bupivacaine-related CNS side effects; clinical laboratory tests; vital signs; 12-lead ECGs; and physical examinations.
# Evaluation by the investigator of wound healing and tissue conditions at the surgical wound on Days 7 and 14, and at the 6-month follow-up visit. An MRI of the shoulder as well as a functionality assessment of the shoulder using the Constant-Murley score were to be performed at the 6-month follow-up visit.
# There were three studies evaluating the safety of Formulation A administered during shoulder surgery. […]
# Additional follow-up safety data consisting of shoulder MRI, physical examination of the shoulder, and assessments of wound healing were collected at 6 months in Study 1 and at 18 months in Study 2. […]
# [2] = tested on: rats; assay: Rat pre- and post-natal development study; format: in vivo; settings: 40 mg/kg subcutaneous, implantation through weaning
# Experimental: (§1) There are no studies conducted with Formulation A in pregnant women. […] Based on animal data, advise pregnant women of the potential risks to a fetus. [see Data]
# The high dose is approximately 0.6 times the daily MRHD of 660 mg/day on a BSA basis.
# [3] = tested on: patients, abdominal surgeries; assay: Adverse reactions pooled from laparoscopic, laparoscopically-assisted and open abdominal surgery studies; format: in vivo, human; settings: adjusted percentage
# [4] = human, in vivo
# [5] = Example 18: plasma pharmacokinetics by cohort; format: in vivo, human; settings: Cohort 2; total bupivacaine in plasma
# Experimental: Plasma PK samples were analyzed for determination of total bupivacaine concentration only and none of the samples were analyzed for determination of free drug concentration.
# [6] = tested on: pregnant rabbits; assay: Embryo-fetal development study, subcutaneous, rabbits; format: in vivo
# Experimental: as §1
# (§2) Bupivacaine hydrochloride was administered subcutaneously to rats at doses of 4.4, 13.3, & 40 mg/kg and to rabbits at doses of 1.3, 5.8, & 22.2 mg/kg during the period of organogenesis (implantation to closure of the hard palate). The high doses are approximately 0.6 times the daily maximum recommended human dose (MRHD) of 660 mg/day on a mg/m^2 body surface area (BSA) basis.
# [7] = tested on: pregnant rats; settings: rat, in vivo
# Experimental: as §2
# [8] = tested on: patients undergoing total abdominal hysterectomy; assay: Adverse reactions, total abdominal hysterectomy study; format: in vivo, human; settings: Formulation A N = 60; Bupivacaine HCl N = 27
# Experimental: In a study of patients undergoing total abdominal hysterectomy, Formulation A, vehicle placebo, or bupivacaine HCl was administered into the surgical incision at the end of surgery.
# [9] = clinical; settings: human, in vivo; for half-life: t1/2 (min, max)
# Experimental: Additionally, alpha 1 acid glycoprotein (AAG) plasma concentrations were measured in these two groups for correlation with free bupivacaine concentrations.
# Using non-compartmental methods the following PK parameters were calculated from the plasma concentrations of each compound: area under the plasma concentration vs. time curve until the last measured concentration (AUCt), area under the plasma concentration vs. time curve extrapolated until infinity (AUCinf), the maximum concentration (Cmax), the time of its occurrence (tmax) and the apparent terminal elimination half-life (t1/2). […] The average […] of bupivacaine was approximately 5.2%; free bupivacaine plasma concentrations generally paralleled those of total bupivacaine. There was a large interindividual variability of Cmax of both total and free bupivacaine. […] Note: Table 1.5 presents Geometric mean, ±68th percentile for Cmax rather than absolute min,max.
# [10] = tested on: patients undergoing elective arthroscopic shoulder surgery; assay: Example 1 / Study 1: pain intensity and opioid rescue after arthroscopic shoulder surgery; format: in vivo, human; settings: ITT, HCl
structure (smiles),measurement,setting,value
CCCCN1CCCCC1C(=O)Nc1c(C)cccc1C (stereo not drawn) [Bupivacaine HCl],Constant-Murley score decreased from baseline,[1]; 6-month follow-up,(0%)
same,"Constant-Murley score, follow-up, mean",[1]; 6-month follow-up,65.6
same,Shoulder MRI: Improved compared with pre-surgical MRI,[1]; 6-month follow-up,(24.0%)
same,Shoulder MRI: No change compared with pre-surgical MRI,[1]; 6-month follow-up,(36.0%)
same,Shoulder MRI: Worsened compared with pre-surgical MRI,[1]; 6-month follow-up,(40%)
same,Adverse reaction: Electrocardiogram T wave inversion,"[1]; Table 4.1, Study 1",0%
same,Adverse reaction: Headache,"[1]; Table 4.1, Study 1",1 (3.4%)
same,Adverse reaction: Hypoesthesia,"[1]; Table 4.1, Study 1",1 (3.4%)
same,Adverse reaction: Pruritus generalized,"[1]; Table 4.1, Study 1",0%
same,All TEAEs,[1]; safety population,37.9%
same,TEAE: Alanine aminotransferase increased,[1]; safety population,0.0%
same,TEAE: Cardiac disorders,[1]; safety population,10.3%
same,TEAE: Gastrointestinal disorders,[1]; safety population,3.4%
same,TEAE: General disorders and administration site conditions,[1]; safety population,0.0%
same,TEAE: Headache,[1]; safety population,3.4%
same,"TEAE: Injury, poisoning and procedural complications",[1]; safety population,0.0%
same,TEAE: Investigations,[1]; safety population,6.9%
same,TEAE: Musculoskeletal and connective tissue disorders,[1]; safety population,6.9%
same,TEAE: Musculoskeletal pain,[1]; safety population,6.9%
same,TEAE: Nausea,[1]; safety population,3.4%
same,TEAE: Nervous system disorders,[1]; safety population,13.8%
same,"TEAE: Respiratory, thoracic and mediastinal disorders",[1]; safety population,6.9%
same,TEAE: Skin and subcutaneous tissue disorders,[1]; safety population,6.9%
same,Pup survival at the high dose,[2],decreased pup survival was observed
same,Adverse reaction: Abdominal distension,[3],(4.8%)
same,Adverse reaction: Abdominal pain,[3],(0.5%)
same,Adverse reaction: Abdominal pain upper,[3],(1.0%)
same,Adverse reaction: Anemia,[3],(0.7%)
same,Adverse reaction: Body temperature increased,[3],0%
same,Adverse reaction: Chest pain,[3],(0.5%)
same,Adverse reaction: Constipation,[3],(41.8%)
same,Adverse reaction: Cough,[3],(1.8%)
same,Adverse reaction: Diarrhea,[3],(5.5%)
same,Adverse reaction: Dizziness,[3],(30.1%)
same,Adverse reaction: Dry mouth,[3],(1.0%)
same,Adverse reaction: Dysgeusia,[3],(16.9%)
same,Adverse reaction: Dyspepsia,[3],(1.9%)
same,Adverse reaction: Flatulence,[3],(4.0%)
same,Adverse reaction: Headache,[3],(32.3%)
same,Adverse reaction: Hypertension,[3],(3.6%)
same,Adverse reaction: Hypokalemia,[3],(1.4%)
same,Adverse reaction: Ileus,[3],(0.7%)
same,Adverse reaction: Incision site erythema,[3],(2.7%)
same,Adverse reaction: Incision site hematoma,[3],(1.7%)
same,Adverse reaction: Incision site hemorrhage,[3],(3.0%)
same,Adverse reaction: Incision site infection,[3],(2.5%)
same,Adverse reaction: Insomnia,[3],(2.9%)
same,Adverse reaction: Musculoskeletal pain,[3],(4.9%)
same,Adverse reaction: Nasopharyngitis,[3],0%
same,Adverse reaction: Nausea,[3],(59.6%)
same,Adverse reaction: Oropharyngeal pain,[3],(1.0%)
same,Adverse reaction: Pain in extremity,[3],(2.8%)
same,Adverse reaction: Paresthesia,[3],(13.1%)
same,Adverse reaction: Post procedural contusion (bruising),[3],(61.8%)
same,Adverse reaction: Post procedural discharge,[3],(4.4%)
same,Adverse reaction: Procedural pain,[3],(17.8%)
same,Adverse reaction: Pruritus,[3],(18.7%)
same,Adverse reaction: Pyrexia,[3],(5.7%)
same,Adverse reaction: Rash,[3],(3.8%)
same,Adverse reaction: Somnolence,[3],(41.0%)
same,Adverse reaction: Urinary retention,[3],(1.2%)
same,Adverse reaction: Vomiting,[3],(21.0%)
same,Adverse reaction: Wound dehiscence,[3],(1.5%)
same,"Cmax (min, max), free bupivacaine",[4],"(0.3, 10.1) ng/mL"
same,Tmax Median,[5],1 h
same,Embryo-fetal deaths at the high dose,"[6]; 22.2 mg/kg subcutaneous, organogenesis, rabbits",An increase in embryo-fetal deaths was observed
same,Fetal No Observed Adverse Effect Level,"[6]; female, rabbit, in vivo",approximately 0.2 times the MRHD
same,Embryo-fetal effects at the high dose,[7],No embryo-fetal effects were observed
same,"Anemia, (%)",[8],(11.1%)
same,"C-reactive protein increased, (%)",[8],(3.7%)
same,"Dizziness, (%)",[8],(14.8%)
same,"Hypertension, (%)",[8],(7.4%)
same,"Pyrexia, (%)",[8],(25.9%)
same,"Somnolence, (%)",[8],(7.4%)
same,"Vomiting, (%)",[8],(14.8%)
same,AUC(0-inf),[9],30 to 2210 ng·h/mL
same,AUC(0-t),[9],249 to 1900 ng·h/mL
same,"AUCinf (min, max), free bupivacaine",[9],"(0.7, 134) h · ng/mL"
same,"AUCinf, free bupivacaine",[9],48 ng·h/mL
same,"AUCt (min, max), free bupivacaine",[9],"(0.010, 0.102) mg · h · L^−1"
same,"AUCt, free bupivacaine",[9],33 ng·h/mL
same,Cmax,[9],8 to 195 ng/mL
same,"Cmax, free bupivacaine",[9],5.0 ng/mL
same,"Cmax, total bupivacaine",[9],90 ng/mL
same,Tmax,[9],0.92 to 12 h
same,"tmax (min, max), free bupivacaine",[9],"(0.92, 12.0) h"
same,half-life,[9]; free bupivacaine,2.9 to 15.2 h
same,half-life,[9]; total bupivacaine,2.6 to 9.6 h
same,"Total IV morphine equivalent dose of opioid rescue medication, median",[10]; 0-72 hours after surgery,8.0 mg
same,"Time to first use of opioid rescue medication, median (95% CI)",[10]; Kaplan-Meier,"1.4 (1.0, 4.1) hours"
